Drawing on PubChem BioAssay AID179 (DTP/NCI, 2004), this text covers EC50, IC50 and outcome for 46 molecules.

One may read the EC50 as the concentration needed to bring the measured effect to its halfway point. By IC50 is commonly meant the concentration that gives 50% inhibition. Higher therefore signals lower potency.

The structures appear in SMILES notation. Calls of active or inactive are those of the source.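 How the source made its calls: active means compounds giving half or more protection of infected cells from virus-caused growth loss, again on retest; inactive means the rest.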 Where a SMILES comes first, the peptide text is derived from it. [ ]: non-standard residue; d: D form. The star is where a group is joined. Phe(4-NO2) = N[CH](Cc1ccc([N+](=O)[O-])cc1)C(=O)O; Boc = CC(C)(C)OC(=O)*; Ava = NCCCCC(=O)O; Mpa = O=C(O)CCS

This assay deals with CEM cells HIV-1 protection, formazan growth assay. Description: NCI AIDS Antiviral Assay. Conditions: for IC50: measured here: growth of uninfected CEM cells. The method, then:
The ability of compounds to protect human CEM cells from HIV-1 infection is measured as a screen for new compounds capable of inhibiting the HIV virus. Five concentrations of drug were tested on uninfected and infected cells and cell growth was measured using a soluble formazan assay. […] Compounds that provided at least 50% protection were retested. Compounds that provided at least 50% protection on retest were listed as moderately active. Compounds that reproducibly provided 100% protection were listed as confirmed active. […] Note that the inability to provide protection could be due to toxicity.

Take `Clc1ccc(CNCCCNCc2ccc(Cl)c(Cl)c2)cc1Cl`: the EC50 is > 200 µM and the IC50 turned out to be 15.8 µM.

Turning to `COC(=O)N1CCc2c(nc(N(C)CCO)[nH]c2=O)C1`, the EC50 was > 891 µM and the IC50 came out at 708 µM. Consider `CCC(CO)Nc1nc2c(c(=O)n(C)c(=O)n2C)n1CCO` (stereo not drawn), for which the result was inactive. For `O=C(O)c1nc2ccccc2nc1NCc1ccc(F)cc1`, the EC50 was > 200 µM and the IC50 was 56.2 µM. In the case of `OCC1C=CC(n2cnc3c(Cl)ncnc32)CC1` (stereo not drawn), the EC50 was > 200 µM and the IC50 stood at 34.7 µM. With `C[N+]1(CCCl)CCc2cccc([N+](=O)[O-])c2C1` (stereo not drawn), the EC50 is > 200 µM and the IC50 was 97.7 µM. With `CCOC(=O)CCC(NC(=O)C(Cc1ccc([N+](=O)[O-])cc1)NC(=O)OC(C)(C)C)C(=O)NC(CCC(=O)OCC)C(=O)OCC` (stereo not drawn) (Boc-[Phe(4-NO2)]-Glu(OEt)-Glu(OEt)-OEt; configuration not given here), the EC50 was > 200 µM and the IC50 came to 9.77 µM. `CSc1nc2c(c(=O)[nH]1)N=C(c1ccc(Cl)cc1)CC(c1ccccc1)N2` (stereo not drawn): the EC50 was > 200 µM and the IC50 is 33.1 µM.

Take `CCCCCCCCCCCCOP(=O)(O)OP(=O)(O)OCC1OC(n2ccc(N)nc2=O)CC1O` (stereo not drawn): the EC50 was 57.5 µM and the IC50 is > 100 µM. With `COc1ccc(C(O)c2ccc3c(c2)OCO3)cc1` (stereo not drawn), the EC50 is > 200 µM and the IC50 is 162 µM. For `Cc1ccc(S(=O)(=O)N/N=C2\C=C[C@]3(CC2)C(=O)N(C)c2ccccc23)cc1`, the EC50 was > 200 µM and the IC50 is 102 µM.

On to `CCCCc1ccc(-n2c3nc(=O)n(C)c(=O)c-3nc3ccccc32)cc1`, for which the outcome was inactive. With `COC(=O)C(=O)C(C(=O)C(=O)Nc1nc2ccc(C)cc2s1)c1nc2ccc([N+](=O)[O-])cc2[nH]c1=O` (stereo not drawn), the EC50 is > 132 µM and the IC50 was 126 µM.

For the molecule `COC1(OC)c2ccccc2C2(O)c3ccccc3C(=O)C12` (stereo not drawn), the result was inactive. For the molecule `CN(C)CCNS(=O)(=O)c1ccc(N)cc1`, the EC50 was > 200 µM and the IC50 is > 200 µM. In the case of `CC1=NN(C(=O)CC(=O)Nc2cccc(Cl)c2)C(=O)C1N=Nc1ccc(S(=O)(=O)c2ccc(N=NC3C(=O)N(C(=O)CC(=O)Nc4cccc(Cl)c4)N=C3C)cc2)cc1` (stereo not drawn), the EC50 is > 100 µM and the half-maximal inhibitory concentration (IC50) is > 100 µM. For `COC1=C2C[C@@H](C)C[C@@H](OC)[C@@H](O)[C@H](C)/C=C(\C)[C@@H](OC(N)=O)[C@H](OC)/C=C\C=C(/C)C(=O)NC(=CC1=O)C2=O`, the EC50 was > 1.15 µM and the IC50 came out at 0.0813 µM.

Regarding `O=C1C=CC(=O)C(CNc2ccc(C(=O)OC34CC5CC(CC(C5)C3)C4)cc2)=C1Br`, the EC50 is > 200 µM and the IC50 was 1.51 µM. Taken in the same sequence, the figures for `CC1CN(c2cc3c(cc2F)c(=O)c(C(=O)O)cn3-c2ccc(N3CCN(C)CC3)cn2)CC(C)N1` (stereo not drawn) were > 145 µM and 123 µM. For `Clc1c(Cl)c(Cl)c2nn(C3CCCO3)nc2c1Cl` (stereo not drawn) the same measures were > 200 µM and 39.8 µM.

Regarding `O=c1[nH]c2nncn2c2ccccc12`, the EC50 is > 200 µM and the IC50 was > 200 µM.

`CC1=NN(c2ccccc2)C(=O)C1C(=O)C(=O)Nc1ccc(C)cc1C` (stereo not drawn): the outcome was inactive and the IC50 worked out at 102 µM. As for `CCN(CC)CCOC(=O)c1cc2ccccc2n1Cc1ccccc1`, the EC50 was > 100 µM and the IC50 is > 100 µM. Turning to `OC1(CCc2ccccc2)COC(C(F)(F)F)(C(F)(F)F)C1` (stereo not drawn), the EC50 was > 200 µM and the IC50 was > 200 µM. Turning to `CCOC(=O)/C(C#N)=C/c1cccc(C)c1`, the EC50 was > 120 µM and the IC50 was > 120 µM.

In the case of `COC(=O)/C(C#N)=C/n1ccc(=O)[nH]c1=S`, the EC50 is > 200 µM and the 50% inhibitory concentration (IC50) is > 200 µM. With `CCOc1ccc(NC(=O)CCc2nnc(SC)o2)cc1`, the EC50 is > 162 µM and the IC50 is > 162 µM. Take `CCC(C)NC(=S)N/N=C(\C)c1ccccn1` (stereo not drawn): the EC50 was > 0.2 µM and the IC50 was determined as 0.0158 µM.

`C=CCN=C1NC(=O)C(CC(=O)Nc2ccc([N+](=O)[O-])cc2[N+](=O)[O-])S1` (stereo not drawn): the EC50 is > 13.8 µM and the IC50 is > 13.8 µM. As to `O=C1CCSc2nc(-c3ccc4c(c3)OCO4)nn21`, the EC50 was > 200 µM and the half-inhibitory concentration (IC50) was > 200 µM. Consider `COc1cc2c(cc1O)C1Cc3cc(O)c(OC)cc3C(C2)N1C` (stereo not drawn), for which the EC50 was > 759 µM and the IC50 came to 49 µM. As to `COC(=O)CC1N=C(NC#N)N(CCc2c[nH]c3ccccc23)C1=O` (stereo not drawn), the result was inactive.

On to `O=c1oc2ccccc2n1CCCn1c(=O)oc2ccccc21`, for which the EC50 is > 200 µM and the IC50 was > 200 µM. With `Cc1ccc(-c2nn3c(-c4ccccc4)nnc3o2)cc1`, the EC50 was > 200 µM and the IC50 stood at 132 µM. In the case of `COc1ccc(NC(=O)CC(=O)n2nc(-c3ccccc3)c(N=Nc3ccc(C)cc3)c2-c2ccccc2)cc1`, the EC50 was > 9.77 µM and the 50% inhibitory concentration (IC50) is > 9.77 µM. For `N#CCCN(CCC#N)c1ccc(/C=C2\N=C(COc3ccc(Cl)cc3Cl)OC2=O)cc1`, the EC50 is > 537 µM and the IC50 amounted to 490 µM. In the case of `CCOC(=O)C(=O)/C(=C/n1c(=S)[nH]c2ccc([N+](=O)[O-])cc21)C(=O)OCC`, the EC50 is > 200 µM and the IC50 worked out at 77.6 µM. Taken in the same sequence, the figures for `Cc1ccc(S(=O)(=O)OC2COCOC2C2OCOC3COCOC32)cc1` (stereo not drawn) were > 200 µM and > 200 µM. Turning to `CC(NC(=O)CCS)C(=O)NC(C)C(=O)NC(Cc1c[nH]c2ccccc12)C(=O)NC(Cc1c[nH]cn1)C(=O)NC(CO)C(=O)NC(Cc1c[nH]c2ccccc12)C(=O)NCCCCC(=O)NC(C)C(=O)NC(CCC(N)=O)C(=O)NC(CCCCN)C(=O)NC(C)C(=O)NC(CCCNC(=N)N)C(=O)NC(CCCCN)C(N)=O` (stereo not drawn) ([Mpa]AAWHSW[Ava]AQKARK-NH2; configuration not given here), the EC50 was > 20 µM and the IC50 was > 20 µM. With `CC(C)[Si](OC12CCC(CC1O)CC2C(=O)O)(C(C)C)C(C)C` (stereo not drawn), the EC50 was > 200 µM and the IC50 is 22.4 µM. As for `C=C1CN(S(=O)(=O)c2ccc(C)cc2)CCCN(C(=O)OC)CCCN(S(=O)(=O)c2ccc(C)cc2)C1`, the EC50 is > 200 µM and the IC50 is 107 µM. Take `C=CC(c1ccccc1)[C@@]1(OC(C)=O)C(=O)C(=O)OC1C1COC(C)(C)O1` (stereo partly drawn): the EC50 was > 200 µM and the IC50 came to 6.46 µM. For the molecule `CCOS(=O)(=O)c1ccc(-c2c3nc(c(-c4ccc(S(=O)(=O)OCC)cc4)c4ccc([nH]4)c(-c4ccc(S(=O)(=O)OCC)cc4)c4nc(c(-c5ccc(S(=O)(=O)OCC)cc5)c5ccc2[nH]5)C=C4)C=C3)cc1`, the EC50 is > 100 µM and the IC50 is > 100 µM. For the molecule `COC(=O)[C@@H]1C[C@@]2(C3C=CN(C(=O)C(F)(F)F)C=C3)c3ccccc3N(C(=O)C(F)(F)F)[C@H]2N1C(=O)OC`, the EC50 was > 200 µM and the IC50 came out at 166 µM.

As to `O=C(Nc1ccc(Cl)cc1Cl)C1C(=O)OC2(CCCCC2)OC1=O`, the EC50 was > 200 µM and the IC50 came to 13.8 µM. Turning to `CC(=O)N(C(C)=O)n1c(-c2ccccc2)n[nH]c1=O`, the EC50 was > 200 µM and the IC50 is > 200 µM.
